In patent US7232833B2, “4-substituted quinoline derivatives, method and intermediates for their preparation and pharmaceutical compositions containing them” (Novexel, priority 2003, dated 2007) one finds melting point and MIC data, which are given here for 14 compounds.

Converted amounts (≈) assume the structure as drawn. Structures can show the parent of a compound that is named as a salt.

One series has as its system E. faecalis ATCC29212. Nature of the series: MIC by dilutions in agar medium (NCCLS). In kind it is cell-based. Particulars: Enterococcus faecalis, Gram-positive, at 24 hours, agar dilution. From the text: (§1) a) Activity in vitro The method of dilutions in agar medium in agreement with the NCCLS recommendations is used for the determination of the minimum inhibitory concentrations (MIC) expressed in μg/ml.

Series [1] concerns M. catarrhalis IPA151 sensitive. Nature of the series: MIC by dilutions in agar medium (NCCLS). In kind it is cell-based. To be noted: Moraxella catarrhalis, IPA151SENSITIVE; Gram-negative, at 48 hours, agar dilution.
Description: as §1
Background: Agar dilution tests growth on a series of plates holding different concentrations.

The test system of series [2] is S. aureus AS 5155 methicillin resistant. Nature of the series: MIC by dilutions in agar medium (NCCLS). In kind it is cell-based. To be noted: Staphylococcus aureus; Gram-positive, at 24 hours, agar dilution.
Description: as §1

The test system of series [3] is S. aureus IP8203 sensitive. Put plainly: MIC by dilutions in agar medium (NCCLS). In kind it is cell-based. To be noted: Staphylococcus aureus; Gram-positive, at 24 hours, agar dilution.
Description: as §1

The test system of series [4] is S. pneumoniae 6254-01 MLSB resistant. Nature of the series: MIC by dilutions in agar medium (NCCLS). To be noted: Streptococcus pneumoniae; Gram-positive, at 24 hours, agar dilution. In kind it is cell-based.
Description: as §1

As to `COc1ccc2ncc(F)c(CCCC3(C(=O)O)CCN(C/C=C/c4cc(F)c(F)c(F)c4)C3)c2c1` (single isomer, unassigned) [Example 49, 3-[3-(3-fluoro-6-methoxyquinolin-4-yl)propyl]-1-[(2E)-3-(3,4,5-trifluorophenyl)-2-propenyl]-3-pyrrolidinecarboxylic acid], the melting point (usually the temperature of the solid-liquid transition) stood at 110 °C.
In turn, `COc1ccc2ncc(F)c(CCCC3(C(=O)O)CCN(C/C=C/c4cc(F)ccc4F)C3)c2c1` (single isomer, unassigned) [Example 4, 1-[(2E)-3-(2,5-difluorophenyl)-2-propenyl]-3-[3-(3-fluoro-6-methoxyquinolin-4-yl)propyl]-3-pyrrolidinecarboxylic acid] yielded a melting point of 80 to 84 °C.
`COc1ccc2ncc(F)c(CCCC3(C(=O)O)CCN(CCSc4cccs4)C3)c2c1` (single isomer, unassigned) [Example 17, 3-[3-(3-fluoro-6-methoxyquinolin-4-yl)propyl]-1-[2-(2-thienylthio)ethyl]-3-pyrrolidinecarboxylic acid] registered a melting point of 160 °C.
Take `COc1ccc2ncc(Cl)c(CCCC3(C(=O)O)CCN(C/C=C/c4cc(F)ccc4F)C3)c2c1` (racemic) (as salt: sodium) [Example 15, (±)-3-[3-(3-chloro-6-methoxyquinolin-4-yl)propyl]-1-[(2E)-3-(2,5-difluorophenyl)-2-propenyl]-3-pyrrolidinecarboxylic acid]: the melting point is 77 °C.
Regarding `COc1ccc2ncc(F)c(CCCC3(C(=O)O)CCN(CCSc4c(F)cccc4F)C3)c2c1` (single isomer, unassigned) [Example 57, 1-[2-[(2,6-difluorophenyl)thio]ethyl]-3-[3-(3-fluoro-6-methoxyquinolin-4-yl)propyl]-3-pyrrolidinecarboxylic acid], the melting point amounted to 106 °C.
On to `COC(=O)C1(CCCc2c(F)cnc3ccc(OC)cc23)CCN(C/C=C/c2cc(F)ccc2F)C1` (racemic) [Example 2, Methyl (±)-1-[(2E)-3-(2,5-difluorophenyl)-2-propenyl]-3-[3-(3-fluoro-6-methoxyquinolin-4-yl)propyl]-3-pyrrolidinecarboxylate], for which the minimum inhibitory concentration (MIC) (in general, the lowest concentration found to suppress growth) was in the range of 0.25 to 32 µg/mL (≈ 0.501 to 64.2 µM) against E. faecalis ATCC29212; 0.12 to 2 µg/mL (≈ 0.241 to 4.01 µM) in series [1]; 0.015 to 4 µg/mL (≈ 0.0301 to 8.02 µM) in series [2]; 0.015 to 4 µg/mL (≈ 0.0301 to 8.02 µM) in series [3]; 0.015 to 4 µg/mL (≈ 0.0301 to 8.02 µM) in series [4].
The compound `COc1ccc2ncc(F)c(CCCC3(C(=O)O)CCN(CCSc4cccs4)C3)c2c1` (single isomer, unassigned) [Example 18, 3-[3-(3-fluoro-6-methoxyquinolin-4-yl)propyl]-1-[2-(2-thienylthio)ethyl]-3-pyrrolidinecarboxylic acid] came in with a melting point of 172 °C.
As to `COc1ccc2ncc(F)c(CCCC3(C(=O)O)CCN(C/C=C/c4cc(F)ccc4F)C3)c2c1` (single isomer, unassigned) [Example 3, 1-[(2E)-3-(2,5-difluorophenyl)-2-propenyl]-3-[3-(3-fluoro-6-methoxyquinolin-4-yl)propyl]-3-pyrrolidinecarboxylic acid], the melting point lay in the range of 76 to 80 °C. Moreover, the minimum inhibitory concentration (MIC) in the series with E. faecalis ATCC29212 is 0.25 to 32 µg/mL (≈ 0.516 to 66 µM). The compound further registered a minimum inhibitory concentration (MIC) in series [1] of 0.12 to 2 µg/mL (≈ 0.248 to 4.13 µM). Also, the minimal inhibitory concentration (MIC) in series [2] lay in the range of 0.015 to 4 µg/mL (≈ 0.031 to 8.26 µM). Moreover, the MIC in series [3] was in the range of 0.015 to 4 µg/mL (≈ 0.031 to 8.26 µM). Moreover, in series [4], the MIC lay within 0.015 to 4 µg/mL (≈ 0.031 to 8.26 µM).
`COc1ccc2ncc(F)c(CCCC3(C(=O)O)CCN(CCOc4cc(F)ccc4F)C3)c2c1` (single isomer, unassigned) [Example 30, 1-[2-(2,5-difluorophenoxy)ethyl]-3-[3-(3-fluoro-6-methoxyquinolin-4-yl)propyl]-3-pyrrolidinecarboxylic acid] had a melting point of 157 °C.
Take `COc1ccc2ncc(F)c(CCCC3(C(=O)O)CN(C/C=C/c4cc(F)ccc4F)C3)c2c1` [Example 11, 1-[(2E)-3-(2,5-difluorophenyl)-2-propenyl]-3-[3-(3-fluoro-6-methoxyquinolin-4-yl)propyl]-3-azetidinecarboxylic acid]: the melting point amounted to 211 °C.
Same read-out and setting: the figure for `COc1ccc2ncc(F)c(CCCC3(C(=O)O)CCN(C/C=C/c4cc(Cl)ccc4Cl)C3)c2c1` (single isomer, unassigned) [Example 36, 1-[(2E)-3-(2,5-dichlorophenyl)-2-propenyl]-3-[3-(3-fluoro-6-methoxyquinolin-4-yl)propyl]-3-pyrrolidinecarboxylic acid] is 102 °C; for `COc1ccc2ncc(F)c(CCCC3(C(=O)O)CCN(C/C=C/c4c(F)cccc4F)C3)c2c1` (single isomer, unassigned) (as salt: hydrochloride) [Example 41, 3-[3-(3-fluoro-6-methoxyquinolin-4-yl)propyl]-1-[(2E)-3-(2,6-difluorophenyl)-2-propenyl]-3-pyrrolidinecarboxylic acid] it is 96 °C.
In turn, `COc1ccc2ncc(F)c(CCCC3(C(=O)O)CCN(C/C=C/c4cc(F)ccc4F)C3)c2c1` (racemic) [Example 1, (±)-1-[(2E)-3-(2,5-difluorophenyl)-2-propenyl]-3-[3-(3-fluoro-6-methoxyquinolin-4-yl)propyl]-3-pyrrolidinecarboxylic acid] came in with a melting point of 77 °C. The MIC in the series with E. faecalis ATCC29212 fell in the range of 0.25 to 32 µg/mL (≈ 0.516 to 66 µM). The same compound returned an MIC in series [1] of 0.12 to 2 µg/mL (≈ 0.248 to 4.13 µM). In series [2], this compound yielded an MIC of 0.015 to 4 µg/mL (≈ 0.031 to 8.26 µM). Besides, the MIC in series [3] lay in the range of 0.015 to 4 µg/mL (≈ 0.031 to 8.26 µM). Also, in series [4], the MIC lay in the range of 0.015 to 4 µg/mL (≈ 0.031 to 8.26 µM).
Regarding `COc1ccc2ncc(F)c(CCCC3(C(=O)O)CCN(C/C=C/c4cc(F)c(F)c(F)c4)C3)c2c1` (single isomer, unassigned) [Example 50, 3-[3-(3-fluoro-6-methoxyquinolin-4-yl)propyl]-1-[(2E)-3-(3,4,5-trifluorophenyl)-2-propenyl]-3-pyrrolidinecarboxylic acid], the melting point was determined as 148 °C.
